# Laboratory results taken from ChEMBL document CHEMBL1129369, “Forskolin carbamates: binding and activation studies with type I adenylyl cyclase” (J Med Chem, 1996).
# Molecular target: T1, Adenylate cyclase type 1 (Homo sapiens, UniProt Q08828)
# Assay: Ability to activate the conversion of [32P] ATP to [32P]-cyclic AMP mediated by adenylate cyclase 1
# Assay type: functional
# Settings: not given
# Target sequence in this assay (Q08828 whole entry): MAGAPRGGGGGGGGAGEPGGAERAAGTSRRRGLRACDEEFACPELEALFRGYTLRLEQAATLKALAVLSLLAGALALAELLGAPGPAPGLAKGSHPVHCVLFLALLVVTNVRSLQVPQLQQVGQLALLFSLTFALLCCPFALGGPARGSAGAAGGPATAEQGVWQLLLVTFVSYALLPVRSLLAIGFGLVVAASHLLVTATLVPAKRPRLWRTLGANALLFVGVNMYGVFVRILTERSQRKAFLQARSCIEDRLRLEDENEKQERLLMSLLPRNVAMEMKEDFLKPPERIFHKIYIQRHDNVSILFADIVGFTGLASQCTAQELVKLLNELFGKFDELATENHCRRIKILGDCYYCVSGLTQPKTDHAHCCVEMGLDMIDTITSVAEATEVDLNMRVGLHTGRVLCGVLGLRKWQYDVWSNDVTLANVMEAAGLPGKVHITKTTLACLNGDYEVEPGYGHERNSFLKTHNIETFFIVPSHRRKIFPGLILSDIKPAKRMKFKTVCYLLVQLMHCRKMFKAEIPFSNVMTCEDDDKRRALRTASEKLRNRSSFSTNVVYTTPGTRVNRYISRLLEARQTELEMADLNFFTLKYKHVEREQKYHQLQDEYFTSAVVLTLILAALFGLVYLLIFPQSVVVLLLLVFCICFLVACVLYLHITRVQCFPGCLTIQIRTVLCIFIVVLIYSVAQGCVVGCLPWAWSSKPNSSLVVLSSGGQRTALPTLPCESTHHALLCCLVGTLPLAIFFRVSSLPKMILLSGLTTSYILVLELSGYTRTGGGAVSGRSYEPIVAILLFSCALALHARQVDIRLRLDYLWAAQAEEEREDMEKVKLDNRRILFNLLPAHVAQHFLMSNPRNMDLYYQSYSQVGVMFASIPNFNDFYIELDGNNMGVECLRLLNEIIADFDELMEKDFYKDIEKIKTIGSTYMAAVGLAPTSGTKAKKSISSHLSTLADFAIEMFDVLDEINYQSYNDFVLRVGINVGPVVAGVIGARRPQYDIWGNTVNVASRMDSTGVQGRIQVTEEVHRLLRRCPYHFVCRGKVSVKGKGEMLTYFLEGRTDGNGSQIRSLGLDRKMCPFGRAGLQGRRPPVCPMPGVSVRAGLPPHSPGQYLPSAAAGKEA
row,Structure (SMILES),EC50 [nM]
1,C=C[C@@]1(C)CC(=O)[C@]2(O)[C@@]3(C)[C@@H](O)CCC(C)(C)[C@@H]3[C@H](OC(=O)NCC(C)C)[C@H](O)[C@@]2(C)O1,> 2000
2,C=C[C@@]1(C)CC(=O)[C@]2(O)[C@@]3(C)[C@@H](O)CCC(C)(C)[C@@H]3[C@H](OC(=O)NCCC(C)(C)C)[C@H](O)[C@@]2(C)O1,> 2000
3,C=C[C@@]1(C)CC(=O)[C@]2(O)[C@@]3(C)[C@@H](O)CCC(C)(C)[C@@H]3[C@H](OC(=O)NCCOC)[C@H](OC(C)=O)[C@@]2(C)O1,< 2000

# Further lines, results first:
row,EC50 [nM],Structure (SMILES)
1,< 2000,C=C[C@@]1(C)CC(=O)[C@]2(O)[C@@]3(C)[C@@H](O)CCC(C)(C)[C@@H]3[C@H](OC(=O)NCCc3ccccc3)[C@H](OC(C)=O)[C@@]2(C)O1
2,< 2000,C=C[C@@]1(C)CC(=O)[C@]2(O)[C@@]3(C)[C@@H](O)CCC(C)(C)[C@@H]3[C@H](O)[C@H](OC(=O)NCCN)[C@@]2(C)O1
3,< 2000,C=C[C@@]1(C)CC(=O)[C@]2(O)[C@@]3(C)[C@@H](O)CCC(C)(C)[C@@H]3[C@H](OC(=O)NCCN3CCCCC3)[C@H](OC(C)=O)[C@@]2(C)O1

# Molecular target: T1, Adenylate cyclase type 1
# Assay: Conversion of [32P] ATP to [32P]-cyclic AMP mediated by adenylate cyclase 1
# Assay type: functional
# Settings: read-out: EC50
# Target sequence in this assay (Q08828 whole entry): as above
row,Structure (SMILES),EC50 [nM]
1,C=C[C@@]1(C)CC(=O)[C@]2(O)[C@@]3(C)[C@@H](O)CCC(C)(C)[C@@H]3[C@H](OC(=O)NCC(C)C)[C@H](O)[C@@]2(C)O1,2500
2,C=C[C@@]1(C)CC(=O)[C@]2(O)[C@@]3(C)[C@@H](O)CCC(C)(C)[C@@H]3[C@H](OC(=O)NCCC(C)(C)C)[C@H](O)[C@@]2(C)O1,2100
3,C=C[C@@]1(C)CC(=O)[C@]2(O)[C@@]3(C)[C@@H](O)CCC(C)(C)[C@@H]3[C@H](OC(=O)NCCOC)[C@H](OC(C)=O)[C@@]2(C)O1,700

# The remaining lines, values ahead:
row,EC50 [nM],Structure (SMILES)
1,1500,C=C[C@@]1(C)CC(=O)[C@]2(O)[C@@]3(C)[C@@H](O)CCC(C)(C)[C@@H]3[C@H](OC(=O)NCCc3ccccc3)[C@H](OC(C)=O)[C@@]2(C)O1
2,700,C=C[C@@]1(C)CC(=O)[C@]2(O)[C@@]3(C)[C@@H](O)CCC(C)(C)[C@@H]3[C@H](O)[C@H](OC(=O)NCCN)[C@@]2(C)O1
3,500,C=C[C@@]1(C)CC(=O)[C@]2(O)[C@@]3(C)[C@@H](O)CCC(C)(C)[C@@H]3[C@H](OC(=O)NCCN3CCCCC3)[C@H](OC(C)=O)[C@@]2(C)O1

# Molecular target: T1, Adenylate cyclase type 1
# Assay: (§1) Inhibition of [125 I]6-IHPP-forskolin binding to adenylate cyclase 1
# Settings: not given
# Target sequence in this assay (Q08828 whole entry): as above
row,Structure (SMILES),IC50 [nM]
1,C=C[C@@]1(C)CC(=O)[C@]2(O)[C@@]3(C)[C@@H](O)CCC(C)(C)[C@@H]3[C@H](OC(=O)NCC(C)C)[C@H](O)[C@@]2(C)O1,593
2,C=C[C@@]1(C)CC(=O)[C@]2(O)[C@@]3(C)[C@@H](O)CCC(C)(C)[C@@H]3[C@H](OC(=O)NCCC(C)(C)C)[C@H](O)[C@@]2(C)O1,680
3,C=C[C@@]1(C)CC(=O)[C@]2(O)[C@@]3(C)[C@@H](O)CCC(C)(C)[C@@H]3[C@H](OC(=O)NCCOC)[C@H](OC(C)=O)[C@@]2(C)O1,32

# Further lines, results first:
row,IC50 [nM],Structure (SMILES)
1,36,C=C[C@@]1(C)CC(=O)[C@]2(O)[C@@]3(C)[C@@H](O)CCC(C)(C)[C@@H]3[C@H](OC(=O)NCCc3ccccc3)[C@H](OC(C)=O)[C@@]2(C)O1
2,128,C=C[C@@]1(C)CC(=O)[C@]2(O)[C@@]3(C)[C@@H](O)CCC(C)(C)[C@@H]3[C@H](O)[C@H](OC(=O)NCCN)[C@@]2(C)O1
3,82,C=C[C@@]1(C)CC(=O)[C@]2(O)[C@@]3(C)[C@@H](O)CCC(C)(C)[C@@H]3[C@H](OC(=O)NCCN3CCCCC3)[C@H](OC(C)=O)[C@@]2(C)O1

# Molecular target: T1, Adenylate cyclase type 1
# Assay: as §1
# Settings: not given
# Target sequence in this assay (Q08828 whole entry): as above
row,Structure (SMILES),IC50 [nM]
1,C=C[C@@]1(C)CC(=O)[C@]2(O)[C@@]3(C)[C@@H](O)CCC(C)(C)[C@@H]3[C@H](OC(=O)NCC(C)C)[C@H](O)[C@@]2(C)O1,> 150
2,C=C[C@@]1(C)CC(=O)[C@]2(O)[C@@]3(C)[C@@H](O)CCC(C)(C)[C@@H]3[C@H](OC(=O)NCCC(C)(C)C)[C@H](O)[C@@]2(C)O1,> 150
3,C=C[C@@]1(C)CC(=O)[C@]2(O)[C@@]3(C)[C@@H](O)CCC(C)(C)[C@@H]3[C@H](OC(=O)NCCOC)[C@H](OC(C)=O)[C@@]2(C)O1,< 150

# More lines, now with the values ahead:
row,IC50 [nM],Structure (SMILES)
1,< 150,C=C[C@@]1(C)CC(=O)[C@]2(O)[C@@]3(C)[C@@H](O)CCC(C)(C)[C@@H]3[C@H](OC(=O)NCCc3ccccc3)[C@H](OC(C)=O)[C@@]2(C)O1
2,< 150,C=C[C@@]1(C)CC(=O)[C@]2(O)[C@@]3(C)[C@@H](O)CCC(C)(C)[C@@H]3[C@H](O)[C@H](OC(=O)NCCN)[C@@]2(C)O1
3,< 150,C=C[C@@]1(C)CC(=O)[C@]2(O)[C@@]3(C)[C@@H](O)CCC(C)(C)[C@@H]3[C@H](OC(=O)NCCN3CCCCC3)[C@H](OC(C)=O)[C@@]2(C)O1

# Molecular target: T1, Adenylate cyclase type 1
# Assay: Maximum stimulation activity measured with 100 uM forskolin mediated by adenylate cyclase 1
# Assay type: functional
# Settings: not given
# Target sequence in this assay (Q08828 whole entry, looked up): as the sequence (Q08828 whole entry) above
row,Structure (SMILES),Activity [%]
1,C=C[C@@]1(C)CC(=O)[C@]2(O)[C@@]3(C)[C@@H](O)CCC(C)(C)[C@@H]3[C@H](OC(=O)NCC(C)C)[C@H](O)[C@@]2(C)O1,88
2,C=C[C@@]1(C)CC(=O)[C@]2(O)[C@@]3(C)[C@@H](O)CCC(C)(C)[C@@H]3[C@H](OC(=O)NCCC(C)(C)C)[C@H](O)[C@@]2(C)O1,63
3,C=C[C@@]1(C)CC(=O)[C@]2(O)[C@@]3(C)[C@@H](O)CCC(C)(C)[C@@H]3[C@H](OC(=O)NCCOC)[C@H](OC(C)=O)[C@@]2(C)O1,71

# Next, values leading:
row,Activity [%],Structure (SMILES)
1,65,C=C[C@@]1(C)CC(=O)[C@]2(O)[C@@]3(C)[C@@H](O)CCC(C)(C)[C@@H]3[C@H](OC(=O)NCCc3ccccc3)[C@H](OC(C)=O)[C@@]2(C)O1
2,85,C=C[C@@]1(C)CC(=O)[C@]2(O)[C@@]3(C)[C@@H](O)CCC(C)(C)[C@@H]3[C@H](O)[C@H](OC(=O)NCCN)[C@@]2(C)O1
3,100,C=C[C@@]1(C)CC(=O)[C@]2(O)[C@@]3(C)[C@@H](O)CCC(C)(C)[C@@H]3[C@H](OC(=O)NCCN3CCCCC3)[C@H](OC(C)=O)[C@@]2(C)O1
